The source of these data is PubChem BioAssay AID328 (DTP/NCI, 2004).

Several values for one entry are separate records, joined by “and”; a condition that tells them apart may be missing. Identical values can stand only once. Inconclusive results and toxic doses are left out.

The subject of the test is BDF1 mice, P388 leukemia ip, median survival T/C. As to the kind of experiment: NCI In Vivo Anticancer Drug Screen. Data for tumor model P388 Leukemia (intraperitoneal) in B6D2F1 (BDF1) mice. As to conditions: endpoint: median survival time, higher = longer survival. The method in brief: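 Survival ratio, drug arm over vehicle arm, in mice with a transplanted tumour.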

Setting [1] is: dose: 50.0 mg/kg/injection, schedule: Q01DX009 (ip), vehicle: saline with Tween-80.
Where [2] appears, read: dose: 100.0 mg/kg/injection, schedule: Q04DX003 (ip), vehicle: saline.
Where [3] appears, read: dose: 100.0 mg/kg/injection, schedule: Q01DX009 (ip), vehicle: saline with Tween-80.
Where [4] appears, read: dose: 200.0 mg/kg/injection, schedule: Q01DX009 (ip), vehicle: saline with Tween-80.
Setting [5] is: dose: 400.0 mg/kg/injection, schedule: Q01DX009 (ip), vehicle: saline with Tween-80.
[6] abbreviates: dose: 100.0 mg/kg/injection, schedule: Q04DX003 (ip), vehicle: saline with Tween-80.
[7] abbreviates: dose: 200.0 mg/kg/injection, schedule: Q04DX003 (ip), vehicle: saline with Tween-80.
Setting [8] is: dose: 400.0 mg/kg/injection, schedule: Q04DX003 (ip), vehicle: saline with Tween-80.
Where [9] appears, read: dose: 25.0 mg/kg/injection, schedule: Q01DX009 (ip), vehicle: saline sonified.
[10] abbreviates: dose: 50.0 mg/kg/injection, schedule: Q01DX009 (ip), vehicle: saline sonified.
Setting [11] is: dose: 100.0 mg/kg/injection, schedule: Q01DX009 (ip), vehicle: Klucel (hydroxypropylcellulose) (HPC).
[12] abbreviates: dose: 200.0 mg/kg/injection, schedule: Q01DX009 (ip), vehicle: Klucel (hydroxypropylcellulose) (HPC).
[13] abbreviates: dose: 400.0 mg/kg/injection, schedule: Q01DX009 (ip), vehicle: Klucel (hydroxypropylcellulose) (HPC).
The mark [14] stands for this setting: dose: 25.0 mg/kg/injection, schedule: Q04DX003 (ip), vehicle: saline with Tween-80.
[15] abbreviates: dose: 50.0 mg/kg/injection, schedule: Q04DX003 (ip), vehicle: saline with Tween-80.

Turning to `O.[NH-]C(Cc1ccc(O)cc1)C(=O)O.[Ni]` (stereo unspecified), the T/C is 98 % of control (dose: 6.25 mg/kg/injection, schedule: Q01DX009 (ip), vehicle: saline); 107 % of control (dose: 12.5 mg/kg/injection, schedule: Q01DX009 (ip), vehicle: saline); 100 % of control (dose: 25.0 mg/kg/injection, schedule: Q04DX003 (ip), vehicle: saline).
On to `COc1ccc2nc3cc(Cl)ccc3c(NCCNCCNCCNc3c4ccc(Cl)cc4nc4ccc(OC)cc34)c2c1`, for which the T/C (dose: 12.5 mg/kg/injection, schedule: Q01DX009 (ip), vehicle: saline with Tween-80) was 151 % of control; the T/C (dose: 25.0 mg/kg/injection, schedule: Q01DX009 (ip), vehicle: saline with Tween-80) was 171 % of control; the T/C under setting [1] is 161 % of control.
Regarding `CCOC(=O)C1(c2ccccc2)CCCN(C)CC1` (stereo unspecified), under setting [2], the T/C was 94 % of control.
Regarding `Oc1ccc2ccccc2c1N=Nc1ccc(F)cc1`, the T/C runs as follows: under setting [3], 100 % of control; under setting [4], 90 % of control; under setting [5], 95 % of control.
On to `Cc1ccc2c(c1)SSc1ccc(C)cc1SS2`, for which the T/C is 103 % of control under setting [1], 109 % of control under setting [3] and 114 % of control under setting [4].
Regarding `CC(=O)c1c(O)c(C)c(O)c2c1OC1=CC(=O)C(C(C)=O)C(=O)C12C` (stereo unspecified), the T/C is, setting by setting: (dose: 5.0 mg/kg/injection, schedule: Q01DX009 (ip), vehicle: gum acacia) 100 % of control and 103 % of control; (dose: 10.0 mg/kg/injection, schedule: Q01DX009 (ip), vehicle: gum acacia) 105 % of control and 108 % of control; (dose: 20.0 mg/kg/injection, schedule: Q01DX009 (ip), vehicle: gum acacia) 107 % of control; (dose: 35.0 mg/kg/injection, schedule: Q01DX010 (ip), vehicle: saline) 116 % of control; (dose: 40.0 mg/kg/injection, schedule: Q01DX009 (ip), vehicle: gum acacia) 96 % of control and 105 % of control; (dose: 53.0 mg/kg/injection, schedule: Q01DX010 (ip), vehicle: saline) 122 % of control. For the same compound, the T/C is, setting by setting: (dose: 79.0 mg/kg/injection, schedule: Q01DX010 (ip), vehicle: saline) 122 % of control; (dose: 80.0 mg/kg/injection, schedule: Q01DX009 (ip), vehicle: gum acacia) 103 % of control and 108 % of control.
Consider `CC(=O)Nc1ccc(C)c([N+](=O)[O-])c1`, for which the T/C runs as follows: (dose: 50.0 mg/kg/injection, schedule: Q01DX009 (ip), vehicle: saline) 92 % of control; (dose: 100.0 mg/kg/injection, schedule: Q01DX009 (ip), vehicle: saline) 97 % of control; under setting [2], 99 % of control; (dose: 200.0 mg/kg/injection, schedule: Q01DX009 (ip), vehicle: saline) 118 % of control; (dose: 200.0 mg/kg/injection, schedule: Q04DX003 (ip), vehicle: saline) 100 % of control; (dose: 400.0 mg/kg/injection, schedule: Q04DX003 (ip), vehicle: saline) 90 % of control.
On to `CCOc1ccc(Br)cc1C=O`, for which the T/C was 100 % of control under setting [3]; 90 % of control under setting [6]; 100 % of control under setting [4]; 95 % of control under setting [7]; 100 % of control under setting [5]; 100 % of control under setting [8].
On to `O=C(O)c1ccccc1N=Cc1ccccc1O`, for which the T/C (dose: 176.0 mg/kg/injection, schedule: Q04DX003 (ip), vehicle: saline with Tween-80) is 109 % of control; the T/C (dose: 264.0 mg/kg/injection, schedule: Q04DX003 (ip), vehicle: saline with Tween-80) was 109 % of control; the T/C under setting [8] is 109 % of control.
In the case of `OCC(O)C(O)C(O)c1cnn(-c2ccccc2)n1` (stereo unspecified), the T/C runs as follows: (dose: 75.0 mg/kg/injection, schedule: Q01DX009 (ip), vehicle: saline with Tween-80) 96 % of control; (dose: 150.0 mg/kg/injection, schedule: Q01DX009 (ip), vehicle: saline with Tween-80) 89 % of control; (dose: 300.0 mg/kg/injection, schedule: Q01DX009 (ip), vehicle: saline with Tween-80) 96 % of control.
For `CC1=C/C(=C/c2ccccc2)CC(C)(C)C1` (tested in a mixture with another compound), the T/C under setting [9] is 104 % of control; the T/C under setting [10] was 100 % of control; the T/C (dose: 100.0 mg/kg/injection, schedule: Q01DX009 (ip), vehicle: saline sonified) was 100 % of control.
Turning to `C=CCN1C(=O)C=CC1=O`, the T/C by setting is: (dose: 0.75 mg/kg/injection, schedule: Q01DX009 (ip), vehicle: saline) 102 % of control; (dose: 3.0 mg/kg/injection, schedule: Q01DX009 (ip), vehicle: saline) 117 % of control.
On to `Cc1ccc(C2NC(=O)c3ccccc3N2)c(C)c1` (stereo unspecified), for which the T/C under setting [11] is 110 % of control, the T/C under setting [12] was 110 % of control and the T/C under setting [13] was 120 % of control.
As to `O=c1n(CCCl)c(=O)n(CCCl)c(=O)n1CCCl`, the T/C is 110 % of control under setting [3]; 100 % of control under setting [6]; 110 % of control under setting [4]; 104 % of control under setting [7]; 100 % of control under setting [5]; 104 % of control under setting [8].
Turning to `NC(=S)N/N=C/c1ncccc1F`, the T/C was 110 % of control under setting [14] and 119 % of control under setting [15].
In the case of `O=C(Nc1ccc(C2=NCCCN2)cc1)c1ccc(C(=O)Nc2ccc(C3=NCCCN3)cc2)cc1`, the T/C (dose: 7.2 mg/kg/injection, schedule: Q04DX003 (ip), vehicle: Klucel (hydroxypropylcellulose) (HPC)) is 177 % of control; the T/C (dose: 8.7 mg/kg/injection, schedule: Q04DX003 (ip), vehicle: saline with Tween-80) was 152 % of control; the T/C (dose: 10.8 mg/kg/injection, schedule: Q04DX003 (ip), vehicle: other) was 194 % of control; the T/C (dose: 12.0 mg/kg/injection, schedule: Q04DX003 (ip), vehicle: Klucel (hydroxypropylcellulose) (HPC)) is 194 % of control; the T/C (dose: 13.2 mg/kg/injection, schedule: Q04DX003 (ip), vehicle: saline with Tween-80) was 168 % of control and 172 % of control; the T/C (dose: 18.0 mg/kg/injection, schedule: Q04DX003 (ip), vehicle: other) is 203 % of control. The T/C runs as follows: (dose: 20.0 mg/kg/injection, schedule: Q04DX003 (ip), vehicle: Klucel (hydroxypropylcellulose) (HPC)) 250 % of control; (dose: 20.0 mg/kg/injection, schedule: Q04DX003 (ip), vehicle: saline with Tween-80) 250 % of control and 195 % of control; (dose: 30.0 mg/kg/injection, schedule: Q04DX003 (ip), vehicle: other) 97 % of control; (dose: 30.0 mg/kg/injection, schedule: Q04DX003 (ip), vehicle: saline with Tween-80) 268 % of control and 272 % of control; (dose: 33.3 mg/kg/injection, schedule: Q04DX003 (ip), vehicle: Klucel (hydroxypropylcellulose) (HPC)) 250 % of control.
`COCC1CCSC1=O` (stereo unspecified): the T/C (dose: 100.0 mg/kg/injection, schedule: Q01DX001 (ip), vehicle: saline with Tween-80) was 102 % of control; the T/C (dose: 200.0 mg/kg/injection, schedule: Q01DX001 (ip), vehicle: saline with Tween-80) was 102 % of control; the T/C (dose: 400.0 mg/kg/injection, schedule: Q01DX001 (ip), vehicle: saline with Tween-80) is 93 % of control.
Regarding `COc1cc(Br)c(/C=C/[N+](=O)[O-])cc1OC`, the T/C is, setting by setting: (dose: 12.5 mg/kg/injection, schedule: Q04DX003 (ip), vehicle: saline with Tween-80) 105 % of control; under setting [14], 105 % of control and 107 % of control; under setting [15], 113 % of control; under setting [6], 123 % of control.
Regarding `COc1cc(NS(C)(=O)=O)ccc1NS(C)(=O)=O`, the T/C was 87 % of control under setting [11], 87 % of control under setting [12] and 87 % of control under setting [13].
As to `NC(=S)N/N=C\c1ccc(/C=N/NC(N)=S)cc1`, the T/C is 111 % of control under setting [14], 108 % of control under setting [15] and 100 % of control under setting [6].
In the case of `COc1ccc(CC2c3cc(OC)c(OC)cc3CC[N+]2(C)C)cc1OC` (stereo unspecified), the T/C was 108 % of control (dose: 12.5 mg/kg/injection, schedule: Q01DX009 (ip), vehicle: saline sonified); 100 % of control under setting [9]; 91 % of control under setting [10].
As to `Cc1ccc(NC(=S)NCCc2ccccn2)cc1C`, the T/C under setting [1] is 101 % of control and 124 % of control; the T/C under setting [3] is 100 % of control and 102 % of control; the T/C under setting [4] was 104 % of control and 106 % of control; the T/C under setting [5] is 100 % of control.
